According to patent US20110263588A1, “TRICYCLIC COMPOUNDS AS GLUTAMATE RECEPTOR MODULATORS” (GLAXO GROUP LIMITED, priority 2008, published 2011):
Like-named read-outs stand apart in the source and are kept apart here.

Biological target: T1, human mGlu5 recombinant receptor (Homo sapiens, UniProt P41594)
T1 construct: expressed in transfected cells; host or cells: inducible CHO cell line stably expressing Aequorin (Euroscreen FAST); doxycycline-responsive promoter
Experiment: mGluR5 calcium mobilization in inducible mGluR5 CHO cells (aequorin luminescence, antagonist mode)
Format: cell-based
Settings: antagonist activity against EC80 glutamate, inducible CHO cell line expressing human mGlu5 and Aequorin, read-out: IC50 (uM) Ca^++ flux
Text: mGluR5 Calcium Mobilization in Inducible mGluR5 CHO Cells
To functionally measure mGluR5 calcium mobilization in response to agonists or antagonists, an inducible CHO cell line expressing the human mGlu5 recombinant receptor was used. This cell line also stably expressed Aequorin (Euroscreen FAST), a photoprotein that spontaneously couples with coelenterazine h when added exogenously in the cell media. The Aequorin-coelenterzine h complex undergoes a conformational change upon binding of calcium ions which results in the emission of blue light (wavelength 469 nm) that was measured using a Hamamatsu Functional Drug Screening System 6000.
mGluR5 expression was induced by a doxycycline responsive promoter by growing cells to mid-log phase for 18 hours in media without antibiotics and supplemented with doxycycline (600 ng/mL). Cells were detached from the plate by gentle flushing using PBS-EDTA (5 mM EDTA) and centrifuged for collection and resuspended in “assay buffer” (HBSS, 2.1 mM CaCl2, 2 ug/mL glutamate-pyruvate transaminase, 4 mM MEM sodium pyruvate, and 0.1% protease free BSA). Cells were incubated with coelenterazine h (Molecular Probes) at room temperature for 4 hours before testing.
To measure mGluR5 antagonist activity, cell suspensions containing test compound were mixed with EC80 glutamate and emission of light was recorded. Reference and test compounds were tested at several concentrations in duplicate to obtain dose response curves using the Prism GraphPad software (GraphPad Software Inc.). IC50 values were calculated from the dose response curves using the equation:
Y=Bottom+(Top−Bottom)/(1+10̂((LogEC50−X)*HillSlope)).

T1 sequence (P41594 21-1212): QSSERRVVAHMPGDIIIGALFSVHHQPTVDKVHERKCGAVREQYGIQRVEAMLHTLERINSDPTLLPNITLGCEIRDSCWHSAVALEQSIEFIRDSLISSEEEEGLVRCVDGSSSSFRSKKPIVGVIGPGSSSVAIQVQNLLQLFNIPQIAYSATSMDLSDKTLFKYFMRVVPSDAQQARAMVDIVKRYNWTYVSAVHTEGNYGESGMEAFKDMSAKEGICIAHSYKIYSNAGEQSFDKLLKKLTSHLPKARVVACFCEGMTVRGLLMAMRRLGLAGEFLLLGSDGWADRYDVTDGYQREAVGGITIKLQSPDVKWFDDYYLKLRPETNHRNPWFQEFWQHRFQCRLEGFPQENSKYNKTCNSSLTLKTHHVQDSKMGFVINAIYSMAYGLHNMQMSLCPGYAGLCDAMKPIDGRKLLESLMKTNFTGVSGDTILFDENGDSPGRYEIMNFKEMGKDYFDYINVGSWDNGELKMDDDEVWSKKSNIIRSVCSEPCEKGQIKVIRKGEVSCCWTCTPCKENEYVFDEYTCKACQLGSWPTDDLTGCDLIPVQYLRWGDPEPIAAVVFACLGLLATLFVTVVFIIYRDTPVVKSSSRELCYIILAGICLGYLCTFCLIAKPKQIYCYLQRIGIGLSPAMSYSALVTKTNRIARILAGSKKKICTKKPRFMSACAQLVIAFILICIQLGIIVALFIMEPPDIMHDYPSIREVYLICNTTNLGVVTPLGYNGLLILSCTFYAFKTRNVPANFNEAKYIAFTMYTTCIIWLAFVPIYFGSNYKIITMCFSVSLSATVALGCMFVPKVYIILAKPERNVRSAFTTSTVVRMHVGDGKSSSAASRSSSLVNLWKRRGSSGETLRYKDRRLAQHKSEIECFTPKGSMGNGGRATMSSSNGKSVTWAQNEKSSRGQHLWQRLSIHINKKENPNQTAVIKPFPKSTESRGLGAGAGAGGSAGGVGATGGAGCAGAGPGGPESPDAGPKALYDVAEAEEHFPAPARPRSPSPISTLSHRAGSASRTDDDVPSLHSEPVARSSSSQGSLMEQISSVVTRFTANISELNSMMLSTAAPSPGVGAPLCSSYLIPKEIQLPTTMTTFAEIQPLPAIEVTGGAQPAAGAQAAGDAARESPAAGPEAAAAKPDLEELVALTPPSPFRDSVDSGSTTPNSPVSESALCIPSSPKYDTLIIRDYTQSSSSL

Row | IC50 (Table 2) [µM] | IC50 (Table 3) [µM] | SMILES
1 | > 10 | – | Cn1nc(C(=O)Nc2ccc3c(c2)OCCO3)c2c1-c1ccccc1OC2 [Example 9, N-(2,3-Dihydrobenzo[b][1,4]dioxin-6-yl)-1-methyl-1,4-dihydrochromeno[4,3-c]pyrazole-3-carboxamide]
2 | < 1 | – | CCn1nc(C(=O)Nc2cccc(C)n2)c2c1-c1ncccc1CC2 [Example 16, 1-Ethyl-N-(6-methylpyridin-2-yl)-4,5-dihydro-1H-pyrazolo[4,3-h]quinoline-3-carboxamide]
3 | > 10 | – | Cn1nc2c(c1C1CCCN(C(=O)c3ccc(F)cc3)C1)CCc1ccccc1-2 (stereo not drawn) [Example 24, (4-Fluorophenyl)(3-(2-methyl-4,5-dihydro-2H-benzo[g]indazol-3-yl)piperidin-1-yl)methanone]
4 | > 10 | – | CCN(Cc1nn(C)c2c1COc1ccccc1-2)C(=O)c1ccc(Br)o1 [Example 11, 5-Bromo-N-ethyl-N-((1-methyl-1,4-dihydrochromeno[4,3-c]pyrazol-3-yl)methyl)furan-2-carboxamide]
5 | – | < 1 | Cn1nc(C(=O)Nc2cccc(Cl)c2)c2c1-c1ccccc1SC2 [N-(3-chlorophenyl)-1-methyl-1,4-dihydrothiochromeno[4,3-c]pyrazole-3-carboxamide]
6 | < 1 | – | CC(=O)N1Cc2c(C(=O)Nc3cccc(Cl)c3)nn(C)c2-c2ccccc21 [Example 19]
7 | – | > 10 | CN(C(=O)c1noc2c1COc1ccccc1-2)c1cccc(Cl)c1 [N-(3-chlorophenyl)-N-methyl-4H-chromeno[3,4-d]isoxazole-3-carboxamide]
8 | < 1 | – | Cc1cccc(NC(=O)c2nn(C)c3c2CCc2ccc(C)nc2-3)n1 [Example 18]
9 | – | 1 to 10 | Cn1nc(C(=O)Nc2ccccc2Cl)c2c1-c1ccccc1OC2 [N-(2-chlorophenyl)-1-methyl-1,4-dihydrochromeno[4,3-c]pyrazole-3-carboxamide]
10 | – | > 10 | COc1cccc(NC(=O)c2n[nH]c3c2COc2ccccc2-3)c1 [N-(3-methoxyphenyl)-1,4-dihydrochromeno[4,3-c]pyrazole-3-carboxamide]
11 | – | > 10 | Cn1nc(C(=O)Nc2ccc(F)cc2)c2c1-c1ccccc1OC2 [N-(4-fluorophenyl)-1-methyl-1,4-dihydrochromeno[4,3-c]pyrazole-3-carboxamide]
12 | > 10 | – | Cc1cccc(NC(=O)c2c3c(nn2C)-c2ncccc2CCC3)n1 [Example 23, 4-Methyl-N-(6-methylpyridin-2-yl)-3,4,14-triazatricyclo[8.4.0.0̂{2,6}]tetradeca-1(14),2,5,10,12-pentaene-5-carboxamide]
13 | – | < 1 | O=C(Nc1cccc(Cl)c1)c1noc2c1CSc1ccccc1-2 [N-(3-chlorophenyl)-4H-thiochromeno[3,4-d]isoxazole-3-carboxamide]
14 | – | > 10 | O=C(Nc1ccc(Cl)cc1)c1n[nH]c2c1CCc1ccccc1-2 [N-(4-chlorophenyl)-4,5-dihydro-1H-benzo[g]indazole-3-carboxamide]
15 | < 1 | – | Cc1cccc(NC(=O)c2nn(C)c3c2CCc2cccnc2-3)n1 [Example 13, 1-Methyl-N-(6-methylpyridin-2-yl)-4,5-dihydro-1H-pyrazolo[4,3-h]quinoline-3-carboxamide]
16 | – | > 10 | O=C(Nc1cccnc1)c1n[nH]c2c1COc1ccccc1-2 [N-(pyridin-3-yl)-1,4-dihydrochromeno[4,3-c]pyrazole-3-carboxamide]
17 | – | > 10 | Cn1nc(C(=O)Nc2cccc(Cl)c2)c2c1-c1ccsc1CC2 [N-(3-chlorophenyl)-1-methyl-4,5-dihydro-1H-thieno[2,3-g]indazole-3-carboxamide]
18 | > 10 | – | Cn1nc(C(=O)Nc2cc(C#N)ccn2)c2c1-c1ccccc1OC2 [Example 8, N-(4-Cyanopyridin-2-yl)-1-methyl-1,4-dihydrochromeno[4,3-c]pyrazole-3-carboxamide]
19 | – | < 1 | Cn1nc(C(=O)Nc2ccc(Cl)cn2)c2c1-c1ccccc1OC2 [N-(5-chloropyridin-2-yl)-1-methyl-1,4-dihydrochromeno[4,3-c]pyrazole-3-carboxamide]
20 | > 10 | – | Cn1nc(C(=O)N2CCOc3ccccc32)c2c1-c1ccccc1OC2 [Example 10, (2H-Benzo[b][1,4]oxazin-4(3H)-yl)(1-methyl-1,4-dihydrochromeno[4,3-c]pyrazol-3-yl)methanone]
21 | – | > 10 | Cn1nc(C(=O)Nc2ccc(Cl)cc2)c2c1-c1ccccc1OC2 [N-(4-chlorophenyl)-1-methyl-1,4-dihydrochromeno[4,3-c]pyrazole-3-carboxamide]

Row | IC50 (Table 2) [µM] | IC50 (Table 3) [µM] | SMILES
22 | – | > 10 | COc1cccc(NC(=O)c2nn(C)c3c2COc2ccccc2-3)c1 [N-(3-methoxyphenyl)-1-methyl-1,4-dihydrochromeno[4,3-c]pyrazole-3-carboxamide]
23 | > 10 | – | Cc1cccc(NC(=O)c2nn(C(C)C)c3c2CCc2cccnc2-3)n1 [Example 15]
24 | < 1 | – | Cn1nc2c(c1C(=O)Nc1cccc(Cl)c1)COc1ccc(F)cc1-2 [Example 2, N-(3-Chlorophenyl)-8-fluoro-2-methyl-2,4-dihydrochromeno[4,3-c]pyrazole-3-carboxamide]
25 | > 10 | – | Cn1nc(C2CCCN(C(=O)c3ccc(F)cc3)C2)c2c1-c1ccccc1CC2 (stereo not drawn) [Example 25, (4-Fluorophenyl)(3-(1-methyl-4,5-dihydro-1H-benzo[g]indazol-3-yl)piperidin-1-yl)methanone]
26 | – | > 10 | Cn1nc(C(=O)Nc2ccc(F)c(Cl)c2)c2c1-c1ccccc1OC2 [N-(3-chloro-4-fluorophenyl)-1-methyl-1,4-dihydrochromeno[4,3-c]pyrazole-3-carboxamide]
27 | – | > 10 | CN(C(=O)c1nn(C)c2c1COc1ccccc1-2)c1cccc(Cl)c1 [N-(3-chlorophenyl)-N,1-dimethyl-1,4-dihydrochromeno[4,3-c]pyrazole-3-carboxamide]
28 | > 10 | – | Cn1nc(C(=O)Nc2cccc(Cl)c2)c2c1-c1cc(Cl)ccc1OC2 [Example 5, N-(3-Chlorophenyl)-8-chloro-1-methyl-1,4-dihydrochromeno[4,3-c]pyrazole-3-carboxamide]
29 | < 1 | – | Cc1cccc(NC(=O)c2nn(C)c3c2CCCc2cccnc2-3)n1 [Example 22, 3-Methyl-N-(6-methylpyridin-2-yl)-3,4,14-triazatricyclo[8.4.0.0̂{2,6}]tetradeca-1(14),2(6),4,10,12-pentaene-5-carboxamide]
30 | < 1 | – | Cn1nc(C(=O)Nc2cccc(Cl)c2)c2cnc3ccccc3c21 [Example 20, N-(3-Chlorophenyl)-1-methyl-1H-pyrazolo[4,3-c]quinoline-3-carboxamide]
31 | – | > 10 | COc1ccc(NC(=O)c2n[nH]c3c2COc2ccccc2-3)cc1 [N-(4-methoxyphenyl)-1,4-dihydrochromeno[4,3-c]pyrazole-3-carboxamide]
32 | < 1 | – | Cn1nc(C(=O)Nc2cccc(Cl)c2)c2c1-c1ccccc1CC2 [Example 14, N-(3-Chlorophenyl)-1-methyl-4,5-dihydro-1H-benzo[g]indazole-3-carboxamide]
33 | – | < 1 | Cc1ccc2c(c1)-c1c(c(C(=O)Nc3cccc(Cl)c3)nn1C)CS2 [N-(3-chlorophenyl)-1,8-dimethyl-1,4-dihydrothiochromeno[4,3-c]pyrazole-3-carboxamide]
34 | > 10 | – | Cc1cccc(NC(=O)c2n[nH]c3c2COc2ccccc2-3)n1 [Example 7, N-(6-Methylpyridin-2-yl)-1,4-dihydrochromeno[4,3-c]pyrazole-3-carboxamide]
35 | 1 to 10 | – | Cn1nc(CNc2cccc(Cl)c2)c2c1-c1ccccc1OC2 [Example 12]
36 | – | 1 to 10 | COc1ccc(Cl)cc1NC(=O)c1nn(C)c2c1COc1ccccc1-2 [N-(5-chloro-2-methoxyphenyl)-1-methyl-1,4-dihydrochromeno[4,3-c]pyrazole-3-carboxamide]
37 | < 1 | – | Cc1cccc(NC(=O)c2nn(C)c3c2CCc2ccncc2-3)n1 [Example 17, 1-Methyl-N-(6-methylpyridin-2-yl)-4,5-dihydro-1H-pyrazolo[4,3-h]isoquinoline-3-carboxamide]
38 | > 10 | – | Cn1nc(C(=O)Nc2cccc(Cl)c2)c2c1-c1ccccc1OC2(C)C [Example 4, N-(3-Chlorophenyl)-1,4,4-trimethyl-1,4-dihydrochromeno[4,3-c]pyrazole-3-carboxamide]
39 | < 1 | – | Cn1nc(C(=O)Nc2cccc(Cl)c2)c2c1-c1ccccc1NC2 [Example 21, N-(3-Chlorophenyl)-1-methyl-4,5-dihydro-1H-pyrazolo[4,3-c]quinoline-3-carboxamide]
40 | – | > 10 | Cn1nc(C(=O)Nc2cccc(C(F)(F)F)c2)c2c1-c1ccccc1OC2 [1-methyl-N-(3-(trifluoromethyl)phenyl)-1,4-dihydrochromeno[4,3-c]pyrazole-3-carboxamide]
41 | – | > 10 | Cn1nc(C(=O)NCc2cccc(Cl)c2)c2c1-c1ccccc1OC2 [N-(3-chlorobenzyl)-1-methyl-1,4-dihydrochromeno[4,3-c]pyrazole-3-carboxamide]
42 | > 10 | – | Cc1cccc(NC(=O)c2nn(C)c3c2COc2cc(F)ccc2-3)n1 [Example 6, 7-Fluoro-1-methyl-N-(6-methylpyridin-2-yl)-1,4-dihydrochromeno[4,3-c]pyrazole-3-carboxamide]
